Assay: relative permittivity at zero frequency (dimensionless); xn = mol fraction of the nth substance listed
Conditions: 298.15 K, 101 kPa, Liquid

CCC[N+](=O)[O-] [1-nitropropane] + C1CCCCC1
two-cell dielectric cell
Conditions | relative permittivity at zero frequency
x1 = 0.003184 | 2.05488
x1 = 0.006527 | 2.09539
x1 = 0.01302 | 2.1734
x1 = 0.01942 | 2.24959
x1 = 0.02574 | 2.3244
x1 = 0.02693 | 2.33815
x1 = 0.02818 | 2.3525
x1 = 0.03015 | 2.37603
x1 = 0.03648 | 2.4508
x1 = 0.04272 | 2.52479
x1 = 0.04887 | 2.59808
x1 = 0.05327 | 2.64994
x1 = 0.05626 | 2.68544
x1 = 0.0594 | 2.72327
x1 = 0.06549 | 2.79734
x1 = 0.07152 | 2.87045
x1 = 0.07893 | 2.96124

CCC[N+](=O)[O-] [1-nitropropane] + Cc1ccc(C)cc1
two-cell dielectric cell
Conditions | relative permittivity at zero frequency
x1 = 0.005128 | 2.31627
x1 = 0.007441 | 2.34224
x1 = 0.01482 | 2.4248
x1 = 0.0221 | 2.50652
x1 = 0.02927 | 2.58754
x1 = 0.03246 | 2.62349
x1 = 0.03388 | 2.63942
x1 = 0.03604 | 2.66416
x1 = 0.03819 | 2.68861
x1 = 0.04527 | 2.77022
x1 = 0.05226 | 2.85114
x1 = 0.05913 | 2.93159

CCC[N+](=O)[O-] [1-nitropropane] + ClC(Cl)(Cl)Cl
two-cell dielectric cell
Conditions | relative permittivity at zero frequency
x1 = 0.002869 | 2.27091
x1 = 0.005861 | 2.3147
x1 = 0.01167 | 2.39918
x1 = 0.01742 | 2.48214
x1 = 0.0231 | 2.56405
x1 = 0.0253 | 2.59588
x1 = 0.02987 | 2.66163
x1 = 0.03553 | 2.74365
x1 = 0.04122 | 2.82491
x1 = 0.04993 | 2.95383
x1 = 0.05263 | 2.99295
x1 = 0.05816 | 3.07483
x1 = 0.06363 | 3.15625

CC(C)[N+](=O)[O-] [2-nitropropane] + C1CCCCC1
two-terminal dielectric cell
Conditions | relative permittivity at zero frequency
x1 = 0.001188 | 2.0322
x1 = 0.003139 | 2.0568
x1 = 0.006442 | 2.09876
x1 = 0.009592 | 2.13855
x1 = 0.01286 | 2.18001
x1 = 0.01918 | 2.26067
x1 = 0.02225 | 2.29974
x1 = 0.0266 | 2.35434
x1 = 0.031 | 2.41041
x1 = 0.03475 | 2.45922
x1 = 0.04093 | 2.54037
x1 = 0.04703 | 2.62139
x1 = 0.05035 | 2.66577
x1 = 0.05259 | 2.69578
x1 = 0.05527 | 2.7322
x1 = 0.05838 | 2.77444
x1 = 0.06441 | 2.857
x1 = 0.07038 | 2.93937

CC(C)[N+](=O)[O-] [2-nitropropane] + CC(C)C(C)C
two-terminal dielectric cell
Conditions | relative permittivity at zero frequency
x1 = 0.003786 | 1.92648
x1 = 0.007756 | 1.96704
x1 = 0.01545 | 2.04621
x1 = 0.02302 | 2.12477
x1 = 0.03047 | 2.20279
x1 = 0.03298 | 2.22897
x1 = 0.03446 | 2.24427
x1 = 0.03679 | 2.26913
x1 = 0.04419 | 2.34842
x1 = 0.0515 | 2.42769
x1 = 0.05867 | 2.50669
x1 = 0.06479 | 2.5748
x1 = 0.06604 | 2.58924
x1 = 0.06819 | 2.61329
x1 = 0.07183 | 2.65458
x1 = 0.07889 | 2.73569
x1 = 0.08584 | 2.81657
x1 = 0.09268 | 2.89729

CC(C)[N+](=O)[O-] [2-nitropropane] + Cc1ccc(C)cc1
two-terminal dielectric cell
Conditions | relative permittivity at zero frequency
x1 = 0.005471 | 2.32313
x1 = 0.007307 | 2.34454
x1 = 0.01457 | 2.42922
x1 = 0.02174 | 2.51328
x1 = 0.02879 | 2.59677
x1 = 0.03194 | 2.63439
x1 = 0.03336 | 2.65058
x1 = 0.03555 | 2.67711
x1 = 0.04256 | 2.76165
x1 = 0.04948 | 2.84581
x1 = 0.05628 | 2.92956
x1 = 0.06235 | 3.00461

CC(C)[N+](=O)[O-] [2-nitropropane] + ClC(Cl)(Cl)Cl
two-terminal dielectric cell
Conditions | relative permittivity at zero frequency
x1 = 0.001006 | 2.24531
x1 = 0.002745 | 2.27181
x1 = 0.00569 | 2.31696
x1 = 0.01141 | 2.40482
x1 = 0.01707 | 2.49201
x1 = 0.02266 | 2.57869
x1 = 0.02488 | 2.61322
x1 = 0.02599 | 2.62967
x1 = 0.02803 | 2.6614
x1 = 0.03078 | 2.70432
x1 = 0.03634 | 2.79196
x1 = 0.04183 | 2.87937
x1 = 0.04726 | 2.9666

CC[N+](=O)[O-] [nitroethane] + C1CCCCC1
two-terminal dielectric cell
Conditions | relative permittivity at zero frequency
x1 = 0.003987 | 2.0631
x1 = 0.008153 | 2.11122
x1 = 0.01622 | 2.20858
x1 = 0.02416 | 2.2932
x1 = 0.03312 | 2.3893
x1 = 0.0371 | 2.43784
x1 = 0.04487 | 2.5254
x1 = 0.05252 | 2.6119
x1 = 0.06004 | 2.69759
x1 = 0.06369 | 2.73934

— the NIST ThermoML archive (doi:10.1021/acs.jced.5b00369)
